Values after ≈ are worked out from the molar mass of the structure shown.
Tests used:
[1] = system: Mycobacterium tuberculosis; assay: Antitubercular activity against Mycobacterium tuberculosis H37Ra ATCC 25177 assessed as reduction in microbial growth after 7 days by Alamar blue assay; format: functional; details: H37Ra ATCC 25177, 168 h, time 7 day
[2] = system: Vero; assay: Cytotoxicity against African green monkey Vero cells incubated for 24 hrs by MTT assay; format: cell-based; details: Chlorocebus sabaeus
[3] = Selectivity index, ratio of IC50 for cytotoxicity against African green monkey Vero cells to MIC for antimycobacterial activity against Mycobacterium tuberculosis H37Ra ATCC 25177; format: toxicity, cell-based; details: read-out: Selectivity Index
[4] = Stability of compound in acetonitrile assessed as retention time at 6.05 10^-5mol/L up to 48 hrs by HPLC-DAD method; format: physicochemical
[5] = Stability of compound in acetonitrile at 6.05 10^-5mol/L after 48 hrs by HPLC-DAD method; format: physicochemical; details: at 60.5 µM
[6] = Stability of compound in acetonitrile assessed as retention time at 4.52 10^-5mol/L up to 48 hrs by HPLC-DAD method; format: physicochemical
[7] = Stability of compound in acetonitrile at 4.52 10^-5mol/L after 48 hrs by HPLC-DAD method; format: physicochemical; details: at 45.2 µM
[8] = Stability of compound in acetonitrile assessed as retention time at 4.81 10^-5mol/L up to 48 hrs by HPLC-DAD method; format: physicochemical
[9] = Stability of compound in acetonitrile at 4.81 10^-5mol/L after 48 hrs by HPLC-DAD method; format: physicochemical; details: at 48.1 µM
[10] = Stability of compound in acetonitrile at 4.76 10^-5mol/L after 48 hrs by HPLC-DAD method; format: physicochemical; details: at 47.6 µM
[11] = Stability of compound in acetonitrile assessed as retention time at 6 10^-5mol/L up to 48 hrs by HPLC-DAD method; format: physicochemical
[12] = Stability of compound in acetonitrile at 6 10^-5mol/L after 48 hrs by HPLC-DAD method; format: physicochemical; details: at 60 µM
[13] = Stability of compound in acetonitrile assessed as retention time at 4.23 10^-5mol/L up to 48 hrs by HPLC-DAD method; format: physicochemical
[14] = Stability of compound in acetonitrile at 4.23 10^-5mol/L after 48 hrs by HPLC-DAD method; format: physicochemical; details: at 42.3 µM
[15] = Stability of compound in acetonitrile assessed as retention time at 6.48 10^-5mol/L up to 48 hrs by HPLC-DAD method; format: physicochemical
[16] = Stability of compound in acetonitrile at 6.48 10^-5mol/L after 48 hrs by HPLC-DAD method; format: physicochemical; details: at 64.8 µM

SMILES	MIC [1]	further results
O=C(CC1SC(=O)NC1=O)Oc1cccc(/C=N/NC(=O)c2cccc(Cl)c2)c1 (stereo not drawn)	128 mg/L	
O=C(CC1SC(=O)NC1=O)Oc1ccc(/C=N/NC(=O)c2cccnc2)cc1Br (stereo not drawn)	512 mg/L	
O=C(CC1SC(=O)NC1=O)Oc1ccc(/C=N/NC(=O)c2ccc(Cl)cc2Cl)cc1 (stereo not drawn)	64 mg/L	
O=C(/C=C1/SC(=O)NC1=O)Oc1ccccc1/C=N/NC(=O)c1cccc(Cl)c1	64 mg/L	
COc1cc(/C=N/NC(=O)c2cccc(Cl)c2)ccc1OC(=O)/C=C1/SC(=O)NC1=O	128 mg/L	
O=C(CC1SC(=O)NC1=O)Oc1cccc(/C=N/NC(=O)c2ccc(Cl)cc2Cl)c1 (stereo not drawn)	128 mg/L	
COc1cc(/C=N/NC(=O)c2ccc(Cl)cc2Cl)ccc1OC(=O)CC1SC(=O)NC1=O (stereo not drawn)	128 mg/L	
COc1cc(/C=N/NC(=O)c2cccc(Cl)c2)ccc1OC(=O)CC1SC(=O)NC1=O (stereo not drawn)	128 mg/L	
O=C(CC1SC(=O)NC1=O)Oc1ccc(/C=N/NC(=O)c2cccnc2)cc1 (stereo not drawn)	512 mg/L	
O=C(/C=C1/SC(=O)NC1=O)Oc1ccccc1/C=N/NC(=O)c1ccncc1	4 mg/L	IC50 [2]: > 200 mg/L; selectivity ratio [3]: > 50; Retention_time [4]: 4.36 min; Stabilty [5]: Stable
CCOc1cc(/C=N/NC(=O)c2cccnc2)ccc1OC(=O)CC1SC(=O)NC1=O (stereo not drawn)	> 512 mg/L	
O=C(/C=C1/SC(=O)NC1=O)Oc1ccc(/C=N/NC(=O)c2cccc(Cl)c2)cc1	128 mg/L	
CCOc1cc(/C=N/NC(=O)c2ccccn2)ccc1OC(=O)CC1SC(=O)NC1=O (stereo not drawn)	> 512 mg/L	
O=C(CC1SC(=O)NC1=O)Oc1ccc(/C=N/NC(=O)c2cccc(Cl)c2)cc1 (stereo not drawn)	128 mg/L	
CCOc1cc(/C=N/NC(=O)c2ccncc2)ccc1OC(=O)CC1SC(=O)NC1=O (stereo not drawn)	1 mg/L	IC50 [2]: 50.9 mg/L (≈ 115 µM); selectivity ratio [3]: 50.9; Retention_time [6]: 7.64 min; Stabilty [7]: Stable
O=C(CC1SC(=O)NC1=O)Oc1ccc(/C=N/NC(=O)c2ccncc2)cc1Cl (stereo not drawn)	1 mg/L	IC50 [2]: 31.9 mg/L (≈ 73.7 µM); selectivity ratio [3]: 31.9; Retention_time [8]: 7.59 min; Stabilty [9]: Stable
O=C(/C=C1/SC(=O)NC1=O)Oc1ccccc1/C=N/NC(=O)c1ccccn1	16 mg/L	
COc1cc(/C=N/NC(=O)c2ccncc2)ccc1OC(=O)CC1SC(=O)NC1=O (stereo not drawn)	1 mg/L	IC50 [2]: 203 mg/L (≈ 475 µM); selectivity ratio [3]: 203; Stabilty [10]: Stable
O=C(CC1SC(=O)NC1=O)Oc1ccc(/C=N/NC(=O)c2ccc(Br)cc2)cc1 (stereo not drawn)	256 mg/L	
O=C(CC1SC(=O)NC1=O)Oc1ccc(/C=N/NC(=O)c2ccc(Cl)cc2)cc1 (stereo not drawn)	128 mg/L	
O=C(/C=C1/SC(=O)NC1=O)Oc1cccc(/C=N\NC(=O)c2ccncc2)c1	1 mg/L	IC50 [2]: 143 mg/L (≈ 361 µM); selectivity ratio [3]: 143; Retention_time [11]: 4.36 min; Stabilty [12]: Stable
O=C(CC1SC(=O)NC1=O)Oc1ccc(/C=N/NC(=O)c2ccncc2)cc1Br (stereo not drawn)	1 mg/L	IC50 [2]: 190 mg/L (≈ 398 µM); selectivity ratio [3]: 190; Retention_time [13]: 8.8 min; Stabilty [14]: Stable
O=C(CC1SC(=O)NC1=O)Oc1ccc(/C=N/NC(=O)c2cccnc2)cc1Cl (stereo not drawn)	512 mg/L	
O=C(CC1SC(=O)NC1=O)Oc1ccc(/C=N/NC(=O)c2ccncc2)cc1 (stereo not drawn)	1 mg/L	IC50 [2]: 91.7 mg/L (≈ 230 µM); selectivity ratio [3]: 91.7; Retention_time [15]: 3.48 min; Stabilty [16]: Stable
O=C(/C=C1/SC(=O)NC1=O)Oc1ccccc1/C=N/NC(=O)c1cccnc1	128 mg/L	
CC[C@@H](CO)NCCN[C@@H](CC)CO [ETHAMBUTOL]	2 mg/L	
NNC(=O)c1ccncc1 [ISONIAZID]	0.25 mg/L	
CO[C@H]1/C=C/O[C@@]2(C)Oc3c(C)c(O)c4c(O)c(c(/C=N/N5CCN(C)CC5)c(O)c4c3C2=O)NC(=O)/C(C)=C\C=C\[C@H](C)[C@H](O)[C@@H](C)[C@@H](O)[C@@H](C)[C@H](OC(C)=O)[C@@H]1C [RIFAMPIN]	0.004 mg/L	IC50 [2]: 138 mg/L (≈ 167 µM); selectivity ratio [3]: 34400
CN[C@@H]1[C@H](O[C@H]2[C@H](O[C@H]3[C@H](O)[C@@H](O)[C@H](N=C(N)N)[C@@H](O)[C@@H]3N=C(N)N)O[C@@H](C)[C@]2(O)C=O)O[C@@H](CO)[C@H](O)[C@H]1O [STREPTOMYCIN]	0.5 mg/L	

— ChEMBL document CHEMBL4680164, “Synthesis and antimycobacterial activity of thiazolidine-2,4-dione based derivatives with halogenbenzohydrazones and pyridinecarbohydrazones substituents” (Eur J Med Chem, 2020)
